Data reported in US20060069132A1, “Azolecarboxamide herbicides” (priority 2004, published 2006).
Where two headings read alike, the source gives them in different places.

Experiments:
blackgrass = assay: Test B postemergence herbicide test; type: in vivo, Alopecurus myosuroides; conditions: Alopecurus myosuroides, post-emergence, 336 h, postemergence, visual rating, scale 0 (no effect) to 100 (complete control), read-out: Blackgrass plant response rating
How it was run: (§1)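 Scale 0–100: zero equals no visible effect, 100 complete control, judged by eye relative to controls. Timing: 13 to 15 days in greenhouse post-treatment. Growth stage at spraying: two leaves (paddy) or one to four leaves, 2–18 cm (postemergence).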

velvetleaf = assay: Test B pre-/postemergence herbicide test; type: in vivo, Abutilon theophrasti; conditions: Abutilon theophrasti, 336 h; for pest or weed control at 125 g/ha: 125 g ai/ha; for pest or weed control at 500 g/ha: 500 g ai/ha
How it was run: (§2)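 Greenhouse pot assay with simultaneous preemergence (treated seed) and postemergence (2–18 cm seedlings) applications of surfactant-containing, non-phytotoxic solvent formulations. Response scored visually 13–15 days later on a 0–100 scale, 100 meaning complete control.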

wheat = assay: Test B postemergence herbicide test; type: in vivo, Triticum aestivum; conditions: Triticum aestivum, post-emergence, 336 h, postemergence, 500 g ai/ha; visual rating, scale 0 (no effect) to 100 (complete control); read-out: Wheat plant response rating
How it was run: (§3)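 Each value is a visual 0–100 response rating taken against controls 13 to 15 days after treatment in the greenhouse. Plants received formulated chemical postemergence at the 1- to 4-leaf stage or, in flooded paddy, at the 2-leaf stage.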

[1] = system: small flower umbrella sedge; assay: Test B flooded paddy test; type: in vivo, Cyperus difformis; conditions: Cyperus difformis, 336 h, 1000 g ai/ha, visual rating, scale 0 to 100 (0 no effect, 100 complete control), 13 to 15 days, read-out: Sedge, Umbrella plant response rating
How it was run: as §1

ducksalad = assay: Test B flooded paddy test; type: in vivo, Heteranthera limosa; conditions: Heteranthera limosa, 336 h, 1000 g ai/ha, visual rating, scale 0 to 100 (0 no effect, 100 complete control), 13 to 15 days, read-out: Ducksalad plant response rating
How it was run: as §1

wild oat = assay: Test B postemergence herbicide test; type: in vivo, Avena fatua; conditions: Avena fatua, post-emergence, 336 h, postemergence, visual rating, scale 0 (no effect) to 100 (complete control), read-out: Oat, Wild plant response rating
How it was run: as §3

pigweed = assay: Test B pre-/postemergence herbicide test; type: in vivo, Amaranthus retroflexus; conditions: Amaranthus retroflexus, 336 h; for pest or weed control at 125 g/ha: 125 g ai/ha; for pest or weed control at 500 g/ha: 500 g ai/ha
How it was run: as §2

large crabgrass = assay: Test B pre-/postemergence herbicide test; type: in vivo, Digitaria sanguinalis; conditions: Digitaria sanguinalis; for pest or weed control at 125 g/ha: 125 g ai/ha; for pest or weed control at 500 g/ha: 500 g ai/ha
How it was run: as §2

corn = assay: Test B pre-/postemergence herbicide test; type: in vivo, Zea mays; conditions: Zea mays
How it was run: as §2

rice = assay: Test B flooded paddy test; type: in vivo, Oryza sativa; conditions: Oryza sativa, 336 h, 1000 g ai/ha, visual rating, scale 0 to 100 (0 no effect, 100 complete control), 13 to 15 days, read-out: Rice plant response rating
How it was run: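 Greenhouse test; postemergence application to plants at 1–4 leaves (2–18 cm); paddy species at 2 leaves; evaluated visually vs controls at 13–15 days; scale 0–100 (100 = complete control).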

barnyardgrass = assay: Test B flooded paddy test; type: in vivo, Echinochloa crus-galli; conditions: Echinochloa crus-galli, 336 h, 1000 g ai/ha, visual rating, scale 0 to 100 (0 no effect, 100 complete control), 13 to 15 days, read-out: Barnyardgrass plant response rating
How it was run: as §1

morningglory = assay: Test B pre-/postemergence herbicide test; type: in vivo, Ipomoea coccinea; conditions: Ipomoea, 336 h; for pest or weed control at 125 g/ha: 125 g ai/ha; for pest or weed control at 500 g/ha: 500 g ai/ha
How it was run: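 Formulation: non-phytotoxic solvent mix with surfactant. Timing: preemergence on seed and postemergence on 2–18 cm plants, applied concurrently. Readout after 13–15 d greenhouse: visual 0–100 control rating against controls.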

Surinam grass = assay: Test B pre-/postemergence herbicide test; type: in vivo, Urochloa decumbens; conditions: Urochloa decumbens; for pest or weed control at 125 g/ha: 125 g ai/ha; for pest or weed control at 500 g/ha: 500 g ai/ha
How it was run: as §2

giant foxtail = assay: Test B pre-/postemergence herbicide test; type: in vivo, Setaria faberi; conditions: Setaria faberi, 336 h; for pest or weed control at 125 g/ha: 125 g ai/ha; for pest or weed control at 500 g/ha: 500 g ai/ha
How it was run: as §2

lambsquarters = assay: Test B pre-/postemergence herbicide test; type: in vivo, Chenopodium album; conditions: Chenopodium album, 336 h; for pest or weed control at 125 g/ha: 125 g ai/ha; for pest or weed control at 500 g/ha: 500 g ai/ha
How it was run: as §2

[2] = post-emergence, postemergence, visual rating, scale 0 (no effect) to 100 (complete control), read-out: Velvetleaf plant response rating
[3] = post-emergence, postemergence, visual rating, scale 0 (no effect) to 100 (complete control), read-out: Pigweed plant response rating
[4] = post-emergence, postemergence, visual rating, scale 0 (no effect) to 100 (complete control), read-out: Crabgrass, Large plant response rating
[5] = post-emergence, postemergence, visual rating, scale 0 (no effect) to 100 (complete control), read-out: Morningglory plant response rating
[6] = post-emergence, postemergence, visual rating, scale 0 (no effect) to 100 (complete control), read-out: Surinam Grass plant response rating
[7] = post-emergence, postemergence, visual rating, scale 0 (no effect) to 100 (complete control), read-out: Foxtail, Giant plant response rating
[8] = post-emergence, postemergence, visual rating, scale 0 (no effect) to 100 (complete control), read-out: Lambsquarters plant response rating

CCn1nc(C(C)(C)C)cc1C(=O)Nc1cc(C(=O)N(C)C)ccn1 [Compound 156, 2-[[[3-(1,1-dimethylethyl)-1-ethyl-1H-pyrazol-5-yl]carbonyl]amino]-N,N-dimethyl-4-pyridinecarboxamide]
pest or weed control at 125 g/ha (blackgrass; 125 g ai/ha): 30%
pest or weed control at 500 g/ha (blackgrass; 500 g ai/ha): 60%
pest or weed control at 125 g/ha (velvetleaf; [2]): 60%
pest or weed control at 500 g/ha (velvetleaf; [2]): 90%
pest or weed control at 500 g/ha (velvetleaf; pre-emergence, visual rating 0-100, 0 no effect, 100 complete control, read-out: Plant response rating, Velvetleaf): 100%
pest or weed control at 125 g/ha (velvetleaf; pre-emergence, preemergence, 0 to 100 scale, 0 is no effect, 100 is complete control, read-out: Plant response rating, Velvetleaf): 100%
plant injury at 500 g/ha (wheat): 20%
pest or weed control at 1000 g/ha [1]: 90%
pest or weed control at 1000 g/ha (ducksalad): 100%
pest or weed control at 125 g/ha (wild oat; 125 g ai/ha): 40%
pest or weed control at 500 g/ha (wild oat; 500 g ai/ha): 40%
pest or weed control at 125 g/ha (pigweed; [3]): 30%
pest or weed control at 500 g/ha (pigweed; [3]): 60%
pest or weed control at 500 g/ha (pigweed; pre-emergence, visual rating 0-100, 0 no effect, 100 complete control, read-out: Plant response rating, Pigweed): 100%
pest or weed control at 125 g/ha (pigweed; pre-emergence, preemergence, 0 to 100 scale, 0 is no effect, 100 is complete control, read-out: Plant response rating, Pigweed): 100%
pest or weed control at 125 g/ha (large crabgrass; [4]): 10%
pest or weed control at 500 g/ha (large crabgrass; [4]): 10%
pest or weed control at 500 g/ha (large crabgrass; pre-emergence, visual rating 0-100, 0 no effect, 100 complete control, read-out: Plant response rating, Crabgrass, Large): 100%
pest or weed control at 125 g/ha (large crabgrass; pre-emergence, preemergence, 0 to 100 scale, 0 is no effect, 100 is complete control, read-out: Plant response rating, Crabgrass, Large): 90%
plant injury at 125 g/ha (corn; post-emergence, postemergence, 125 g ai/ha, visual rating, scale 0 (no effect) to 100 (complete control), read-out: Corn plant response rating): 0%
plant injury at 500 g/ha (corn; post-emergence, postemergence, 500 g ai/ha, visual rating, scale 0 (no effect) to 100 (complete control), read-out: Corn plant response rating): 10%
Corn plant response rating (crop injury, 0 = no effect, 100 = complete kill) at 500 g/ha (corn; pre-emergence, 500 g ai/ha, visual rating 0-100, 0 no effect, 100 complete control): 80%
Corn plant response rating (crop injury, 0 = no effect, 100 = complete kill) at 125 g/ha (corn; pre-emergence, preemergence, 125 g ai/ha, 0 to 100 scale, 0 is no effect, 100 is complete control): 40%
plant injury at 1000 g/ha (rice): 90%
pest or weed control at 1000 g/ha (barnyardgrass): 100%
pest or weed control at 125 g/ha (morningglory; [5]): 20%
pest or weed control at 500 g/ha (morningglory; [5]): 50%
pest or weed control at 500 g/ha (morningglory; pre-emergence, visual rating 0-100, 0 no effect, 100 complete control, read-out: Plant response rating, Morningglory): 100%
pest or weed control at 125 g/ha (morningglory; pre-emergence, preemergence, 0 to 100 scale, 0 is no effect, 100 is complete control, read-out: Plant response rating, Morningglory): 60%
pest or weed control at 125 g/ha (Surinam grass; [6]): 10%
pest or weed control at 500 g/ha (Surinam grass; [6]): 20%
pest or weed control at 500 g/ha (Surinam grass; pre-emergence, visual rating 0-100, 0 no effect, 100 complete control, read-out: Plant response rating, Surinam Grass): 100%
pest or weed control at 125 g/ha (Surinam grass; pre-emergence, preemergence, 0 to 100 scale, 0 is no effect, 100 is complete control, read-out: Plant response rating, Surinam Grass): 90%
pest or weed control at 125 g/ha (giant foxtail; [7]): 20%
pest or weed control at 500 g/ha (giant foxtail; [7]): 40%
pest or weed control at 500 g/ha (giant foxtail; pre-emergence, visual rating 0-100, 0 no effect, 100 complete control, read-out: Plant response rating, Foxtail, Giant): 100%
pest or weed control at 125 g/ha (giant foxtail; pre-emergence, preemergence, 0 to 100 scale, 0 is no effect, 100 is complete control, read-out: Plant response rating, Foxtail, Giant): 100%
pest or weed control at 125 g/ha (lambsquarters; [8]): 60%
pest or weed control at 500 g/ha (lambsquarters; [8]): 80%
pest or weed control at 500 g/ha (lambsquarters; pre-emergence, visual rating 0-100, 0 no effect, 100 complete control, read-out: Plant response rating, Lambsquarters): 100%
pest or weed control at 125 g/ha (lambsquarters; pre-emergence, preemergence, 0 to 100 scale, 0 is no effect, 100 is complete control, read-out: Plant response rating, Lambsquarters): 100%
